Experimental data reported in PubChem BioAssay (NCI).
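These data come from cells grown in 96-well plates and exposed to compound for 48 hours at five concentrations. The concentration for full growth arrest is given as TGI.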

Key:
Assay in all cases: growth of human tumour cells (NCI), 48 h
HCT-15 colon = tested on: HCT-15 colon
SNB-19 CNS = tested on: SNB-19 CNS
A498 renal = tested on: A498 renal
NCI-H226 lung = tested on: NCI-H226 lung
MALME-3M melanoma = tested on: MALME-3M melanoma
HCC-2998 colon = tested on: HCC-2998 colon
NCI-H460 lung = tested on: NCI-H460 lung
OVCAR-8 ovarian = tested on: OVCAR-8 ovarian
HOP-92 NSCLC = tested on: HOP-92 NSCLC
M14 melanoma = tested on: M14 melanoma
BT-549 breast = tested on: BT-549 breast
NCI/ADR-RES ovarian = tested on: NCI/ADR-RES ovarian
SF-268 CNS = tested on: SF-268 CNS
SF-295 CNS = tested on: SF-295 CNS
EKVX NSCLC = tested on: EKVX NSCLC
MOLT-4 leukemia = tested on: MOLT-4 leukemia
MCF7 breast = tested on: MCF7 breast
U251 CNS = tested on: U251 CNS
SR leukemia = tested on: SR leukemia

| Compound | TGI (HCT-15 colon) [µM] | TGI (SNB-19 CNS) [µM] | TGI (A498 renal) [µM] | TGI (NCI-H226 lung) [µM] | TGI (MALME-3M melanoma) [µM] | TGI (HCC-2998 colon) [µM] | TGI (NCI-H460 lung) [µM] | TGI (OVCAR-8 ovarian) [µM] | TGI (HOP-92 NSCLC) [µM] | TGI (M14 melanoma) [µM] | TGI (BT-549 breast) [µM] | TGI (NCI/ADR-RES ovarian) [µM] | TGI (SF-268 CNS) [µM] | TGI (SF-295 CNS) [µM] | TGI (EKVX NSCLC) [µM] | TGI (MOLT-4 leukemia) [µM] | TGI (MCF7 breast) [µM] | TGI (U251 CNS) [µM] | TGI (SR leukemia) [µM] |
| --- | --- | --- | --- | --- | --- | --- | --- | --- | --- | --- | --- | --- | --- | --- | --- | --- | --- | --- | --- |
| C/C(=N/c1[nH]c(=O)cc2c1C(=O)CC2)N(C)C | > 200 | > 200 | > 200 | > 200 | > 200 | > 200 | > 200 | > 200 | > 200 | > 200 | > 200 | > 200 | > 200 | > 200 | > 200 | > 200 | > 200 | > 200 |  |
| CC(C)(C)C1(O)C=C(O)C(=O)N1NC(=O)c1ccccc1Nc1ccccc1 (configuration not stated) | > 100 | > 100 | > 100 | > 100 | > 100 | 62.9 | > 100 | > 100 | > 100 | > 100 | > 100 | > 100 | > 100 | > 100 | > 100 | 29 | > 100 | > 100 |  |
| CC[C@@H]1CC[C@@H]2[C@H](CC[C@]3(C)[C@@H](O)CC[C@@H]23)[C@H]1CO | > 100 | > 100 | > 100 | > 100 | > 100 | > 100 | > 100 | > 100 | > 100 | > 100 | > 100 | > 100 | > 100 | > 100 | > 100 | > 100 | > 100 | > 100 |  |
| O=P(c1ccccc1)(c1ccccc1)c1ccc2c(c1)OCCOCCOCCOCCO2 | > 100 | > 100 | > 100 | > 100 | > 100 | > 100 | > 100 | > 100 |  | > 100 | > 100 |  | > 100 | > 100 | > 100 | > 100 | > 100 |  | > 100 |
| CCC(CCN)(CCN)[N+](=O)[O-] | > 100 |  |  |  | > 100 |  | > 100 | > 100 | > 100 | > 100 | > 100 | > 100 | > 100 | > 100 | > 100 | > 100 | > 100 | > 100 | > 100 |
| N#Cc1c(-c2cccc(Cl)c2)cc(-c2ccc(Cl)cc2)nc1N | 32.9 | 25.5 |  | 34.8 | 58.4 |  | 39.2 | 70.7 | 25.3 | 36.9 | 36.4 | 63.5 | 37.7 | 32.5 | 45 | 58.6 | 38.3 | 30.9 | 40 |
